Measured values published in patent publication EP1201237A1, “Composition comprising an amide or a dialkylsulphoxide derivative for the treatment of cancer” (Virodene Pharmaceutical Holdings (PTY) Ltd., priority 2000, dated 2002).
Read-outs that look alike come from different tables or passages of the source.

Columns and labels:
[1] = system: HOC-7 ovarian adenocarcinoma cells; test: ELISA of antigen expression in HOC-7 cells; format: cell-based, human
Source text: (§1) (HOC-7) to a malignant cell. This was also found in human colon carcinoma. (Factor - beta 1 is growth factor, that can be up regulated or transformed in human cells.)
(§2) Exposure of HOC-7 ovarian adenocarcinoma cells to regulators of cell differentiation caused inducer-dependent alterations of the antigenic pattern of the cells. […] Stimulation of fibronectin was also seen after addition of transforming growth factor (TGF) - beta 1. […] CA 125, Fibronectin, and desmoplakins I and II. TGF - beta 1 stimulated fibronectin and desmoplakins I and II only.

[2] = system: non-Hodgkins Lymphoma; test: Example 4: skin patch treatment of a patient with non-Hodgkins Lymphoma; format: in vivo, human
Source text: A fourth patient was an adult diagnosed with non-Hodgkins Lymphoma. The patient had not been on chemotherapy and was HIV positive.

[3] = inhalation study with rabbits; cited from earlier work
[4] = system: Tyrosine Kinase; test: Tyrosine Kinase Assay kit (non-radioactive # 1534505, Boehringer Mannheim); format: biochemical; conditions: values only in Appendix images
Source text: The results are set out in the Appendix below. [formula] [formula]

[5] = system: DNA sequences; test: In-vitro studies in cell cultures: effect on DNA; format: cell-based
Source text: (§3) Instead of a piling pattern, mono layers of cells in regular parallel orientation formed that were typical of non-malignant fibroblasts. […] Focal Adhesion Kinase (FAK) is activated in response to receptor activation at focal adhesion sites. FAK is a substrate for the oncogenic forms of the src-family of tyrosine kinases. The action of polar agents on oncogenic expression is believed to be the induction of cancer cells to become more benign. It would seem reasonable that to convert a malignant cell to a benign phenotype, there should be some modulation of gene expression causing malignancy in the first place. In the HL-60 human promyelocytic leukemia cells, dimethylsulfoxide (DMSO) reduced the expression of c-myc oncogenes by 80 to 90%. Some brain tumours are regulated by glial-binding growth factors such as Epidermal Growth Factor (EGF) and Platelet Derived Growth Factor (PDGF) both of which are related to oncogenes. The PDGF β-chain gene is the cellular homologue and proto-oncogene of the viral […] oncogene. Cell maturation induced by polar agents (N-MF) as single agents is most likely to be effective in Neuroblastoma and Glioblastoma (as well as leukemia and melanoma). Polar agents easily penetrate the blood brain barrier and sensitize tumour cells to both X-radiation and cis-platinum. […]

[6] = Single dose study of disposition, safety, tolerability and pharmacokinetics of virodene P058 in healthy volunteers; format: in vivo; conditions: 7,06 g of DMF transdermally once a week for 8 hours, human subjects
Source text: A draft interim clinical safety report produced by Guy's Drug Research Unit of Kings College and St Thomas' Hospitals' Medical and Dental School is set out below.
A single dose study of the disposition, safety, tolerability and pharmacokinetics of virodene P058 in healthy volunteers.
• ° 5 subjects dosed on day 1 (subjects 001 - 005) • ° 5 subjects dosed on day 14 (subjects 006 - 010) • ° No withdrawals • ° Final follow up for subjects 001 - 005 occurred on day 15 • ° Final follow up for subjects 006 - 010 due on day 28 Table 1.1 -
The first patch was applied at 10h00 on day 1 for subjects 001 - 005 and at 09h20 on […] for subjects 006 - 010 with 10 minute intervals between dosing.
• ° Laboratory Safety Values: No clinically significant changes observed for biochemistry, liver function tests, haematology or coagulation parameters. • ° Vital Signs - There were no obvious clinically significant changes observed • ° Continuous lead [I monitoring - No clinically significant changes observed] • ° 12 kead ECG - No clinically significant changes observed • ° Adverse events are reported in Table 1.2

[7] = oral study; cited from earlier work
[8] = Toxicity of DMF by route of administration; format: in vivo; conditions: subcutaneous versus oral
[9] = system: virus transformed mice kidney cell-lines; test: Growth pattern of virus transformed kidney cell-lines; format: cell-based; conditions: growth medium supplemented by 0.5% DMF
Source text: as §3

[10] = several 90-day studies; cited from earlier work
[11] = system: ras-transfected cells; test: Properties of ras-transfected FR3T3 fibroblasts; format: cell-based
Source text: (§4) The high proliferation rate of the ras-3 cells was associated with elevated expression of protein B23. The 19-3 cells. But not the ras-3 cells, expressed cell surface fibronectin.

[12] = in vivo; cited from earlier work
[13] = system: Karposi Sarcoma; test: Example 3: skin patch treatment of an AIDS patient with Karposi Sarcoma; format: in vivo, human
Source text: A third patient was a person suffering from full blown AIDS. The patient had seven tumours which were diagnosed as Karposi Sarcoma.

[14] = system: chemistry transformed fibroblasts; test: Phenotype of chemically transformed fibroblasts; format: cell-based
[15] = system: HOC-7 cells; test: Immunophenotype and growth of HOC-7 cells; format: cell-based, human
Source text: Production of EGF and TGF - alpha was not affected by these inducers. Immunocytochemistry. […] The expression of myconcoproteins was inversely related to cell proliferation CA 125, however, seems to be unrelated to cell growth.

[16] = DMF level in the patient's blood during patch treatment; format: in vivo, human; conditions: patches of about 7,064 g DMF
Method: For a patient weighing about 60 kg, an amount of about 14 g over a period of 12 hours is required to produce a level of 100 ppm. […] Absorption capability varies from patient to patient depending on factors such as skin-type and skin thickness.
Daily full clinical and psychological evaluations were also conducted.

[17] = system: FR3T3 fibroblasts; test: EGF binding and EGF secretion in transfected FR3T3 lines and control cells; format: cell-based
Source text: as §4

[18] = system: Mama Carcinoma; test: Example 2: skin patch treatment of a patient with Mama Carcinoma; format: in vivo, human; conditions: three weekly treatments, 7.04g patches for 4 hours
[19] = system: HOC-7 ovarian adenocarcinoma cells; test: Immunocytochemistry of HOC-7 cells; format: cell-based, human
Source text: as §1, §2

[20] = system: myc onco-proteins; test: In-vitro studies in cell cultures: myc expression; format: cell-based
Source text: as §3

[21] = system: EGF-transfected cells; test: Properties of EGF-transfected FR3T3 fibroblasts; format: cell-based
[22] = system: metastasised fourth stage breast cancer; test: Example 1: skin patch treatment of a breast cancer patient; format: in vivo, human
Source text: The patient was a person suffering from metastasised fourth stage breast cancer. The primary cancer was in the left breast and had spread to the right breast. The patient had auxiliary left and right swollen lymph glands under both arms, swelling of lymph glands under the chin and a secondary tumour near the crown of the head protruding from the skull which was four fingertips across. The patient was dehydrated and unable to keep down food or water.
A skin patch was applied to the skin adjacent the tumour for six hours. […] The gel served to prevent leakage of liquid DMF from the patches.
Each patch was applied for a period of 6 hours, on alternate days for one week followed by a one week break.

[23] = system: c-myc oncogenes; test: c-myc expression in HL-60 cells; format: cell-based; conditions: HL-60 human promyelocytic leukemia cells
Source text: as §3

Compound: CN(C)C=O [DMF, dimethylformamide]
- expression of EGF - receptor, CA 125, Fibronectin, and desmoplakins I and II [1]: dose dependently induced
- cancer ([2]; after eight treatments, 7.04g patches for 8 hours, 8 weeks): disappeared
- recurrence of cancer ([2]; eight months later): had not recurred
- NOAEL for developmental effects [3]: 150 mg/m^3
- effect of DMF on PTK [4]: Tyrosine Kinase inhibitor
- effect on DNA sequences [5]: conformational changes and hypomethylation
- liver enzymes [6]: does not result in raised liver enzymes
- serious adverse events [6]: no serious adverse events
- toxicity [6]: non-toxic
- NOAEL for developmental effects [7]: 44 mg/kg body weight
- toxicity, subcutaneously as compared with oral administration [8]: 5 - 10 times lower
- random piling, non-contact-inhibited growth pattern [9]: marked alteration
- NOAEL (No-Adverse-observed-Effect-Level) [10]: could not be established
- fibronectin expression ([11]; ras-3 cells): did not restore
- growth in monolayer culture or under anchorage-independent growth conditions ([11]; ras-transfected cells, compared with EGF-transfected cells): much slighter effect
- acute dermal, oral and inhalation toxicity [12]: low
- recurrence of tumours ([13]; after 18 months): no tumours had recurred
- tumours ([13]; after six treatments): disappeared
- tumours ([13]; after two weekly treatments, 7.04g patches for 8 hours, seven tumours): faded
- phenotype of transformed fibroblasts [14]: restoration of a nontransformed phenotype
- cell growth ([15]; HOC-7 cells): growth inhibition
- effectiveness in changing the immunophenotype of HOC-7 cells ([15]; compared with TGF-beta 1): more effective
- DMF blood level obtained ([16]; after loss by evaporation): 100 ppm
- DMF blood level delivered in theory ([16]; theoretical): 125 - 135 ppm
- secretion of EGF ([17]; 2 transfected lines as well as control cells): increased
- EGF binding ([17]; transfected cell lines): in neither case did DMF alter
- bleeding [18]: bleeding disappeared
- pain [18]: less pain
- tumour shrunk in diameter ([18]; 3 weeks, 53 cm before treatment): 7 cm
- cytoplasmic and surface labeling for CA 125 and disposition of fibronectin into the extracellular matrix [19]: stimulated
- membrane staining for epidermal growth factor (EGF) receptor and for desmoplakins I and II [19]: elevated
- expression of myc onco-proteins [20]: inhibited
- anchorage-independent growth [21]: inhibition
- normal cellular morphology and growth rate in monolayer culture [21]: restoration
- proliferation-associated nucleolar protein B23 [21]: down-regulation
- temperature of the tumour ([22]; during patch treatment): dropped to normal
- tumour reduced in size ([22]; patches 6 hours on alternate days for one week, then one week break): 1 - 2 mm per week
- patient's appetite ([22]; three days after the treatment began): appetite returned
- tumour diameter ([22]; two days after first 6 hour patch, 32 cm before treatment): 29,5 cm
- tumour circumference ([22]; two days after first 6 hour patch, 52 cm before treatment): 51 cm

Compound: C[S+](C)[O-] [DMSO, dimethylsulfoxide]
- reduced expression of c-myc oncogenes [23]: 80 to 90%
